Measurements published in publication PMC5116675, “The lectin-like protein 1 in Lactobacillus rhamnosus GR-1 mediates tissue-specific adherence to vaginal epithelium and inhibits urogenital pathogens” (Scientific Reports, 2016).

Assays:
[1] = biological target: T1, lectin domain of LGR1_Llp1 (lectin-like protein 1) (Lacticaseibacillus rhamnosus, UniProt T1SH75); assay: pull-down with sugar-coated Sepharose 6B beads, SDS-PAGE; assay type: binding; settings: sugar immobilised on beads; 25 mM MES, 25 mM NaCl, 1% polyvinylalcohol, 4 °C, 2 h; 100 μg/ml lectin domain
T1 construct: gene E6L36_12050; N-terminal L-type lectin domain (PF00139, ca. 250 residues) with 22 amino acids extension, N-His6 tag (pET28a, pCMPG10775), from E. coli BL21(DE3); full protein 680 residues; FITC-labelled for glycan array
T1 sequence (T1SH75 31-352 limits assumed): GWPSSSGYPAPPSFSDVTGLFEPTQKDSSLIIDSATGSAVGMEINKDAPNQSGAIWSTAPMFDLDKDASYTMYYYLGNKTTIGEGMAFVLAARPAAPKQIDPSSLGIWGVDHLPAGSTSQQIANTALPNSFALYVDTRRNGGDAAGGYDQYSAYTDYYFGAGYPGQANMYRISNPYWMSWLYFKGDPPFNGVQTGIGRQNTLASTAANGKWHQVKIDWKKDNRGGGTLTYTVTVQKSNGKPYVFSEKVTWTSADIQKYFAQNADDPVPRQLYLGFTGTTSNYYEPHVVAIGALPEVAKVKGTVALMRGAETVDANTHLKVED

[2] = biological target: T1, lectin domain of LGR1_Llp1 (lectin-like protein 1); assay: mammalian glycan array v5.[…] (CFG), FITC-labelled lectin domain; assay type: binding; settings: glycan immobilised on NHS-activated glass slide through amino linker

Row | Compound | pull-down with sugar-coated Sepharose 6B beads, SDS-PAGE [1] | mammalian glycan array v5.2 (CFG), FITC-labelled lectin domain [2]
1 | OC[C@H]1OC(O)[C@@H](O)[C@@H](O)[C@@H]1O (stereo partly drawn) [D-mannose] | The purified lectin domain of Llp1 showed the highest binding to mannan and mannose | –
2 | CC(=O)N[C@H]1[C@H](O[C@@H]2[C@H](O[C@]3(C(=O)O)C[C@H](O)[C@@H](NC(C)=O)[C@H]([C@H](O)[C@@H](CO)O[C@]4(C(=O)O)C[C@H](O)[C@@H](NC(C)=O)[C@H]([C@H](O)[C@H](O)CO)O4)O3)[C@@H](O)[C@H](O[C@H]3[C@H](O)[C@@H](O)[C@H](OCCN)O[C@@H]3CO)O[C@@H]2CO)O[C@H](CO)[C@H](O)[C@@H]1O[C@@H]1O[C@H](CO)[C@H](O)[C@H](O[C@]2(C(=O)O)C[C@H](O)[C@@H](NC(C)=O)[C@H]([C@H](O)[C@@H](CO)O[C@]3(C(=O)O)C[C@H](O)[C@@H](NC(C)=O)[C@H]([C@H](O)[C@H](O)CO)O3)O2)[C@H]1O [Neu5Acα2-8Neu5Acα2-3Galβ1-3GalNAcβ1-4(Neu5Acα2-8Neu5Acα2-3)Galβ1-4Glcβ-Sp0] | – | LGR1_Llp1 showed also a capacity to bind to the glycosphingolipid GQ1 receptor
